Like-named read-outs stand apart in the source and are kept apart here.
What was measured:
Ch-ind-1 cells = assay: Proliferation of inducible interference line with chemical ChoK inhibitors; assay type: cell-based, human; details: Ch-ind-1, analogous to parent MDA-MB-231
Text: FIG. 23: Proliferation of MDA-MB-231 (upper row of plaques) and Ch-ind-1 (lower row of plaques) cells in growth permissive conditions (“Control” column? or in the presence of the chemical inhibitors of choline kinase MN58b (middle column) or RSM936 (right column).
FIGS. 23 and 24 show the results obtained in Ch-ind-1 cells, a cell line derived from MDA-MB-231, capable of expressing the interference construction after treatment with the inducing agent doxocycline. […] The genetic inhibition of ChoKα is correlated with a reduction of cell proliferation (determined by pCNA) and an increase of cell death due to apoptosis (determined by PARPdig, degraded PARP protein, which is an indicator of apoptosis). The effect begins to be seen after 10 days, although it is still very initial, and is much more pronounced 20 days after the beginning of the experiment (in which the population has very little ChoKα expression).

HMEC [1] = details: cited from earlier work
HMEC [2] = assay: Antiproliferative effect of ChoK inhibition, primary mammary epithelial cells; assay type: cell-based, human
Text: (§1) The antiproliferative effect of ChoK inhibition in said cell lines caused by the addition of MN58b was also checked, obtaining the results shown in the following Table, in which the numbers between parentheses indicate the sensitivity of each cell compared with the primary cells. The differences between the primary cells and the four cell lines derived from tumors were significant (p:<0.001) in all the analyzed time periods.

[3] = molecular target: T1, recombinant human choline kinase alpha (Homo sapiens, UniProt P35790); assay: Enzymatic activity of recombinant choline kinase isoforms in E. coli extracts; assay type: biochemical; details: recombinant isoforms expressed in E. coli
T1 construct: made in house; host or cells: E. coli
T1 sequence (P35790 whole entry, canonical isoform): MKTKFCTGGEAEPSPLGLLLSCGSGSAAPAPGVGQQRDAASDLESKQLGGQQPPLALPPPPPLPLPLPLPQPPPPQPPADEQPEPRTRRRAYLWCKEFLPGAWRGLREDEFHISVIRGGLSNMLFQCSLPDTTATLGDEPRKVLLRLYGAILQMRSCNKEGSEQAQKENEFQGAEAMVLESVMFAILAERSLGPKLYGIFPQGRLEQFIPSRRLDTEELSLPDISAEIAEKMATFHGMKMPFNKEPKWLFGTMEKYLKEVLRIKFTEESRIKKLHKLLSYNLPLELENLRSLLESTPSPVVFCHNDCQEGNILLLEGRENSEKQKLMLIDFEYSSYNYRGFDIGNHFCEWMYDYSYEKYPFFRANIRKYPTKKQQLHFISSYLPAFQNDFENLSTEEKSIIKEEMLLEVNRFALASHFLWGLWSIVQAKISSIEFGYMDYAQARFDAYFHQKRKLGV
Method: FIG. 9: Specificity of the inhibitor MN58b on choline kinase alpha. E. coil extracts in which recombinant human choline kinase alpha or choline kinase beta proteins are expressed were analyzed in the absence (0) or in the presence of increasing concentrations of MN58b.
Once the oncogenic activity of the choline kinase alpha isoform, as well as its high incidence of overexpression in human tumors was verified, it was then studied if the anti-tumor effect of the inhibitor MN58b [Hernández-Alcoceba, R., Saniger, L., Campos, J., Núñdez, M. C., Khaless, F., Gallo, M. Á., Espinosa, A., Lacal, J. C. Oncogene, 15, 2289-2301 (1997); Hernández-Alcoceba, R., Fernández, F., Lacal J. C. Cancer Res. 55, 3112-3118 (1999); Ramirez de Molina A., Bañez-Coronel M., Gutiérrez R., Rodriguez González A., Olmeda D., Megias D., Lacal J. C. Cancer Res. 64:6732-6739 (2004)] is specific for this choline kinase alpha isoform or if, in contrast, it could also be attributed to its possible interaction with the choline kinase beta isoform. This verification is necessary because the two choline kinase alpha and choline kinase beta isoforms share up to 75% homology in the substrate binding domains and in the catalytic region. […]

MDA-MB-231 = details: MDA-MB-231, previously described; cited from earlier work
[4] = test system: HEK293T cells transfected with the cka gene; assay: Growth of tumors induced by choline kinase alpha overexpression in Nu/Nu mice; assay type: in vivo; details: 5 mg/Kg intraperitoneally, 5 consecutive days with 9 days of rest
Method: Given that tumors have been generated in vivo by overexpressing choline kinase alpha and that MN58b is specific for this isoform, it has been verified if the growth of the tumors induced by ChoKα is susceptible to inhibition by MN58b. […] When the tumors reached a tumor volume of 0.1 cm^3, treatment with the specific choline kinase alpha inhibitor, MN58b, began, which was administered intraperitoneally in sterile physiological serum for 5 consecutive days with 9 days of rest at a dose of 5 mg/Kg. The control mice received equivalent carrier doses, following the same calendar and the tumors were monitored at least twice a week.

BEC = assay: Antiproliferative effect of ChoK inhibition, primary bronchial epithelial cells; assay type: cell-based, human
Method: (§2) First, the mRNA levels corresponding to said enzyme in cell lines derived from patients with lung cancer were detected again by means of automated real-time quantitative PCR reactions with specific Taqman probes. They were carried out both on cell lines corresponding to the most common type of lung cancer (75-85%), non-microcytic or NSCLC (non small cell lung cancer), represented by lines H460 and H1299, and on lines corresponding to the other type of cancer, microcytic or SCLC (small cell lung cancer), represented by lines H510 and H82, the data being represented in logarithmic scale relating to normal primary human bronchial epithelial cells, BEC. […] An increase with respect to the controls, which is particularly considerable in the case of the SCLC lines, especially H510, is observed in all cases.
as §1

H510 = assay: Antiproliferative effect of ChoK inhibition, SCLC line; assay type: cell-based, human; details: for IC50: H510 (SCLC); for sensitivity of the cell compared with the primary cells: number in parentheses
Method: as §2, §1

H82 = assay: as above; assay type: cell-based, human; details: for IC50: H82 (SCLC); for sensitivity of the cell compared with the primary cells: number in parentheses
Method: as §2, §1

H460 = assay: Antiproliferative effect of ChoK inhibition, NSCLC line; assay type: cell-based, human; details: for IC50: H460 (NSCLC); for sensitivity of the cell compared with the primary cells: number in parentheses
Method: as §2, §1

H1299 = assay: as above; assay type: cell-based, human; details: for IC50: H1299 (NSCLC); for sensitivity of the cell compared with the primary cells: number in parentheses
Method: as §2, §1

MN58b
sensitivity of proliferation to chemical inhibition of ChoKα (Ch-ind-1 cells): sensitive to the chemical inhibition
cell fate of primary cells after treatment (HMEC [1]; HMEC treated with the inhibitor): cycle-arrested
effect on the viability of normal primary cells (HMEC [1]; HMEC, chemical inhibitor): no effect on the viability
IC50 (HMEC [2]; 48 h, read-out: 48 h IC50): 44700 ± 4950 nM
IC50 (HMEC [2]; 72 h, read-out: 72 h IC50): 20900 ± 2700 nM
IC50 (HMEC [2]; 114 h, read-out: 114 h IC50): 3400 ± 130 nM
times more active against choline kinase alpha than against choline kinase beta [3]: 20 times
anti-tumor effect of pharmacological inhibition of choline kinase (MDA-MB-231): strong anti-tumor effect due to apoptosis induction
tumor growth reduction [4]: 80%
IC50 (BEC; 48 h, read-out: 48 h IC50): 40500 ± 6200 nM
IC50 (BEC; 72 h, read-out: 72 h IC50): 18300 ± 4800 nM
IC50 (BEC; 114 h, read-out: 114 h IC50): 4200 ± 800 nM
IC50 (H510; 48 h, read-out: 48 h IC50): 1100 ± 100 nM
IC50 (H510; 72 h, read-out: 72 h IC50): 400 ± 50 nM
IC50 (H510; 114 h, read-out: 114 h IC50): 100 ± 30 nM
sensitivity of the cell compared with the primary cells (H510; H510, 48 h): 41
sensitivity of the cell compared with the primary cells (H510; H510, 72 h): 53
sensitivity of the cell compared with the primary cells (H510; H510, 114 h): 27
IC50 (H82; 48 h, read-out: 48 h IC50): 1900 ± 200 nM
IC50 (H82; 72 h, read-out: 72 h IC50): 800 ± 40 nM
IC50 (H82; 114 h, read-out: 114 h IC50): 270 ± 10 nM
sensitivity of the cell compared with the primary cells (H82; H82, 48 h): 24
sensitivity of the cell compared with the primary cells (H82; H82, 72 h): 27
sensitivity of the cell compared with the primary cells (H82; H82, 114 h): 12
IC50 (H460; 48 h, read-out: 48 h IC50): 7030 ± 2030 nM
IC50 (H460; 72 h, read-out: 72 h IC50): 2600 ± 800 nM
IC50 (H460; 114 h, read-out: 114 h IC50): 1100 ± 100 nM
sensitivity of the cell compared with the primary cells (H460; H460, 48 h): 6
sensitivity of the cell compared with the primary cells (H460; H460, 72 h): 8
sensitivity of the cell compared with the primary cells (H460; H460, 114 h): 3
IC50 (H1299; 48 h, read-out: 48 h IC50): 10300 ± 2500 nM
IC50 (H1299; 72 h, read-out: 72 h IC50): 2700 ± 700 nM
IC50 (H1299; 114 h, read-out: 114 h IC50): 900 ± 100 nM
sensitivity of the cell compared with the primary cells (H1299; H1299, 48 h): 4
sensitivity of the cell compared with the primary cells (H1299; H1299, 72 h): 8
sensitivity of the cell compared with the primary cells (H1299; H1299, 114 h): 4

— patent publication US20140023657A1, “IN VITRO METHOD FOR IDENTIFYING COMPOUNDS FOR CANCER THERAPY” (CONSEJO SUPERIOR DE INVESTIGACIONES CIENTIFICAS, priority 2005, published 2014)
